Test results from PMC8078842 (PLoS Neglected Tropical Diseases, 2021).

What was measured:
[1] = molecular target: T1, Oxidase, MAO-A-Peripheral (Rattus norvegicus, UniProt P21396); experiment: CNS side effect panel, [^14C] - 5HT; format: biochemical
T1 sequence (P21396 1-526): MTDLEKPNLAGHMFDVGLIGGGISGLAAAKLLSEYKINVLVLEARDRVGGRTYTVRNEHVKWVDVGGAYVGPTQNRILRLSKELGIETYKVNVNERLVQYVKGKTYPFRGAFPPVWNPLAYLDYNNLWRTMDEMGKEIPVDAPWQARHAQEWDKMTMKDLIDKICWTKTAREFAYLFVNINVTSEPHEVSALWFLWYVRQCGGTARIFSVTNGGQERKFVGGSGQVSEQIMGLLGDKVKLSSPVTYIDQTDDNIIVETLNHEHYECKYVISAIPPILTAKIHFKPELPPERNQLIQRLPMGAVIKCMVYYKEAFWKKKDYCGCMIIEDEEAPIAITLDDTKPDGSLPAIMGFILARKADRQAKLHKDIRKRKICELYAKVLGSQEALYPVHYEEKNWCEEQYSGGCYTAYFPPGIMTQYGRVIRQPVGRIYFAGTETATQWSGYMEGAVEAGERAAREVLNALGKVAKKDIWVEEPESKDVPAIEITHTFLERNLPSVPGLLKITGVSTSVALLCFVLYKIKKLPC

[2] = molecular target: Histamine, H2 (Cavia porcellus, UniProt P47747); experiment: CNS side effect panel, [^125I]-Aminopotentidine; format: binding
[3] = test system: Adrenergic, Beta, Non-selective; experiment: CNS side effect panel, [^3H]DHA; format: binding; conditions: pentamidine 1.0E^-5 M
[4] = test system: Melatonin, Non-selective; experiment: CNS side effect panel, [^125I]-2-Iodomelatonin; format: binding; conditions: pentamidine 1.0E^-5 M
[5] = test system: Norepinephrine Transporter; experiment: CNS side effect panel, [^3H]Nisoxetine; format: binding; conditions: pentamidine 1.0E^-5 M
[6] = test system: GABA A, BDZ, alpha 1 site; experiment: CNS side effect panel, [^3H]Flunitrazepam; format: binding; conditions: pentamidine 1.0E^-5 M
[7] = test system: GABA-B; experiment: CNS side effect panel, [^3H]CGP 54626A; format: binding; conditions: pentamidine 1.0E^-5 M
[8] = test system: Glutamate,NMDA,Glycine (Stry-insens Site) (Ionot); experiment: CNS side effect panel, [^3H]-MDL-105,519; format: binding; conditions: pentamidine 1.0E^-5 M
[9] = test system: fibrinogen binding to GP11b/IIIa; conditions: Inhibits fibrinogen binding to GP11b/IIIa; cited from earlier work

Chain of Histamine, H2 (P47747 whole entry): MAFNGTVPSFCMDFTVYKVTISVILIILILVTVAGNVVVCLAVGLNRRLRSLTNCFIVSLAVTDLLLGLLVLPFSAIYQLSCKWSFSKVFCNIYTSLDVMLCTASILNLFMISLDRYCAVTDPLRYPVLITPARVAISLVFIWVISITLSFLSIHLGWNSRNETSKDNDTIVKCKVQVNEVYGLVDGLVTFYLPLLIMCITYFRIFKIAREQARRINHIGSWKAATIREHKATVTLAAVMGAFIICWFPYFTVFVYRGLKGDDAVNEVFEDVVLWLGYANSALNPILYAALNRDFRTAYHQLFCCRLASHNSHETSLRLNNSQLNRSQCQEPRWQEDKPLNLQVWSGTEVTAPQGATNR

N=C(N)c1ccc(OCCCCCOc2ccc(C(=N)N)cc2)cc1 [Pentamidine, 1,5-bis-4ρ-amidinophenoxypentane]
Ki ([1]; Monoamine oxidase A, concentration-response): 0.217 µM
Percent Inhibition ([1]; pentamidine 1.0E^-5 M): 89.42%
Ki [2]: 7.21 µM
Percent Inhibition ([2]; pentamidine 1.0E^-5 M): 71.07%
Percent Inhibition [3]: 55.37%
Percent Inhibition [4]: 23.45%
Percent Inhibition [5]: 21.39%
Percent Inhibition [6]: 20.54%
Percent Inhibition [7]: 10.74%
Percent Inhibition [8]: -17.52%
Affinity [9]: 1.1 µM
